The values that follow come from article PMC10062662, “Quantitative determination of lurbinectedin, its unbound fraction and its metabolites in human plasma utilizing ultra-performance LC–MS/MS” (PLOS ONE, 2023).

Structures are written as SMILES. Read-outs that look alike come from different tables or passages of the source. A value given as a limit tells only on which side of the number the result lay.

Data set [1] concerns recombinant human AAG and albumin. Briefly: Plasma protein binding by RED in artificial plasma (PBS with recombinant human AAG and albumin). The class given is in vitro ADME. An excerpt:
(§1) RED was considered the best alternative over other methods (e.g., ultrafiltration) to separate lurbinectedin unbound fraction (fu), due to high non-specific binding (NSB) of lurbinectedin leading to adsorption. The RED device consists of a cylinder of dialysis membrane with an 8-kDa molecular weight cut-off held in place by a polytetrafluoroethylene support; the dialysis membrane tube is closed at one end. The RED devices are disposable and used in a reusable polytetrafluoroethylene support plate (holds a maximum of 48 devices). The design of the plate and device allows for PBS to be added in such a way that it can circulate freely around the cylinder of dialysis membrane. In use, spiked plasma (400 μL) is added to the dialysis membrane cylinder part of the RED device, and PBS (600 μL) is added to the other side. The plate, device and volumes used result in a consistent fluid level across both sides of the membrane, preventing mass movement of fluid across the membrane due to hydrostatic pressure.
(§2) Each measurement was performed using three RED devices; the devices were placed in the plate and spiked plasma and PBS were added. The plate was then mixed on an incubating microplate shaker at 100 rpm and 37°C for 8 hours.
(§3) Both the plasma (diluted 1 in 20 with plasma:PBS 1:1, v:v) and PBS (diluted with plasma 1:1, v:v) were assayed in triplicate using the extraction and UPLC-MS/MS method described above. Transfer of the PBS from the incubation plate into an equivalent volume of plasma prior to assay was performed using pipette tips that had been pre-treated with Sigmacote®.
(§4) PPB of lurbinectedin was also studied in artificial plasma (PBS with recombinant human AAG and albumin) at different levels of AAG, albumin and lurbinectedin to estimate the dissociation rate constants for each of these plasma proteins. Several experimental conditions, performed in triplicate, with triplicate analyses, were explored:
(§5) • Condition 1 with lurbinectedin at 500 ng/mL, AAG at 0, 0.25, 0.75, 1, 2 and 4 mg/mL and albumin at 40 mg/mL. • Condition 2 with lurbinectedin at 500 ng/mL, AAG at 1 mg/mL and albumin at 25, 35, 40, 45 and 50 mg/mL. • Condition 3 with lurbinectedin at 50, 75, 100, 250 and 500 ng/mL, AAG at 1 mg/mL and albumin at 40 mg/mL.

Data set [2] deals with T1, recombinant human AAG and albumin (Homo sapiens, UniProt P02768).
T1 construct: purchased Sigma-Aldrich
The data set is described as above. The class given is in vitro ADME. Particulars: without AAG, albumin 40 mg/mL, lurbinectedin 500 ng/mL.
Source text: as §1, §2, §3, §4, §5

Test in data set [3]: as above
Particulars: human; for fraction unbound at 8 h, 500 ng/mL: lurbinectedin 500 ng/mL. The class given is in vitro ADME.
Source text: as §1, §2, §3, §4, §5

The format of data set [4] is in vitro ADME. Particulars: 20 ng/mL. The protocol:
To ensure correct sample collection during the clinical trial procedures, whole-blood (using K3-EDTA as anticoagulant) stability was studied by spiking the blood (lurbinectedin at 20 ng/mL and M4 and M6 at 10 ng/mL). Aliquots of the whole blood were then centrifuged at 4°C for 0, 30, 60, 90 and 120 minutes post equilibration (15 minutes at 37°C) to produce plasma, which was then frozen prior to analysis. This was performed at room temperature (and in an ice bath for lurbinectedin). The derived plasma samples were analyzed in triplicate, and the criterion for acceptance was defined as having a response within ±15% of the zero-minute sample.

Data set [5] can be described thus: Stability of stock and working solutions at -20°C. The class given is physicochemical. Particulars: -20°C ±5°C. The protocol:
The stability of stock and working solutions, as well the stability of IS stock solution, following storage at -20°C ±5°C were investigated by concordance verification by comparing the stored solution against a freshly prepared one.

Details of data set [6]: method as in PMID 30090974. Particulars: cited from earlier work; for reduction of total plasma clearance: 443 cancer patients.

T1 sequence (P02768 25-609): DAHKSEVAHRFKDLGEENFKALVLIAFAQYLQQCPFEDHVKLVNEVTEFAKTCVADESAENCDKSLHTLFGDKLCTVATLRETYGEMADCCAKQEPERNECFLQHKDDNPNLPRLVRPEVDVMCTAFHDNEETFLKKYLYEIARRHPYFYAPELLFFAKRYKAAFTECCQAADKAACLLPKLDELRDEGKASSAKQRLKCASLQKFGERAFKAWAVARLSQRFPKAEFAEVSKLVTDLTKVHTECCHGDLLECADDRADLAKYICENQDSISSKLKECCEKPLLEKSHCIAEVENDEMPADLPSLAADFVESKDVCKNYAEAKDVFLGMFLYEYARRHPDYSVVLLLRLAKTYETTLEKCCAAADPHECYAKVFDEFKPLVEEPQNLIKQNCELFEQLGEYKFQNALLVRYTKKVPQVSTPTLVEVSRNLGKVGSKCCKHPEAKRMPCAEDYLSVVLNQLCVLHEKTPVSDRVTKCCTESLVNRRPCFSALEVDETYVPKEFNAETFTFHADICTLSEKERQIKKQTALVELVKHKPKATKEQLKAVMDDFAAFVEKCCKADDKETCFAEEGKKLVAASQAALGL

`COc1ccc2[nH]c3c(c2c1)CCN[C@]31CS[C@@H]2c3c(OC(C)=O)c(C)c4c(c3[C@H](COC1=O)N1[C@@H]2[C@H]2c3c(cc(C)c(OC)c3O)C[C@@H]([C@@H]1O)N2C)OCO4` [Lurbinectedin]: the percent bound in data set [1] (AAG 0.25 mg/mL, albumin 40 mg/mL, lurbinectedin 500 ng/mL) is recorded as 98.3%; in data set [1] (AAG 0.75 mg/mL, albumin 40 mg/mL, lurbinectedin 500 ng/mL), 99.4%; in data set [1] (AAG 1 mg/mL, albumin 40 mg/mL, lurbinectedin 500 ng/mL), 99.5%; in data set [1] (AAG 2 mg/mL, albumin 40 mg/mL, lurbinectedin 500 ng/mL), 99.7%; in data set [1] (AAG 4 mg/mL, albumin 40 mg/mL, lurbinectedin 500 ng/mL), 99.9%; in data set [1] (condition 2: varying albumin 25-50 mg/mL, AAG 1 mg/mL, lurbinectedin 500 ng/mL), 99.6%. In addition, the percent bound in data set [1] (condition 3: varying lurbinectedin 50-500 ng/mL, AAG 1 mg/mL, albumin 40 mg/mL) is reported as 99.6%; in data set [2] it was 91.1%. The fraction unbound at 8 h, 500 ng/mL in data set [2] (human, read-out: mean percent unbound) is 0.0895; in data set [3] (AAG 0.25 mg/mL, albumin 40 mg/mL, read-out: mean percent unbound), 0.0168; in data set [3] (AAG 0.75 mg/mL, albumin 40 mg/mL, read-out: mean percent unbound) it was 0.00604; in data set [3] (AAG 1 mg/mL, albumin 40 mg/mL, read-out: mean percent unbound) it was 0.00473; in data set [3] (AAG 2 mg/mL, albumin 40 mg/mL, read-out: mean percent unbound), 0.00259; in data set [3] (AAG 4 mg/mL, albumin 40 mg/mL, read-out: mean percent unbound), 0.00101. In data set [3] (condition 2: varying albumin 25-50 mg/mL, AAG 1 mg/mL, read-out: fu (percent unbound)), the fraction unbound at 8 h, 500 ng/mL was 0.00404. Besides, the fraction unbound at 8 h in data set [3] (condition 3: varying lurbinectedin 50-500 ng/mL, AAG 1 mg/mL, albumin 40 mg/mL, read-out: fu (percent unbound)) amounted to 0.00393. Besides, the “stability in human whole K3-EDTA blood” value in data set [4] is at least 120 min. In data set [5] (5 ng/mL in DMSO:ammonium acetate 10 mM ~pH 3 (1:1, v:v)), the “stability of working solution following storage for 7 days” value is on record as “not demonstrated”. The “stability of stock solution in DMSO” value in data set [5] (1 mg/mL in DMSO) is at least 32 days. Further, the hepatic extraction ratio in data set [6] is on record as 0.19. Also, the “reduction of total plasma clearance” value is given as 28% in data set [6] (high alpha-1-acid glycoprotein (AAG)) and 20% in data set [6] (low albumin).
